Among the data in article PMC3771522 (Analytical chemistry, 2013) are Kd values, retold here.

Test [1] addresses creatine phosphokinase. Description: fluorescence titration, hyperbolic single-site fit. Particulars: known ATP-binding protein for comparison.
In test [2] the target is proliferating cell nuclear antigen (PCNA) (Homo sapiens, UniProt P12004). Nature of the test: fluorescence titration, hyperbolic single-site fit. It counts as binding. Particulars: constant PCNA, increasing TNP-ATP.
Chain of proliferating cell nuclear antigen (PCNA) (P12004 whole entry): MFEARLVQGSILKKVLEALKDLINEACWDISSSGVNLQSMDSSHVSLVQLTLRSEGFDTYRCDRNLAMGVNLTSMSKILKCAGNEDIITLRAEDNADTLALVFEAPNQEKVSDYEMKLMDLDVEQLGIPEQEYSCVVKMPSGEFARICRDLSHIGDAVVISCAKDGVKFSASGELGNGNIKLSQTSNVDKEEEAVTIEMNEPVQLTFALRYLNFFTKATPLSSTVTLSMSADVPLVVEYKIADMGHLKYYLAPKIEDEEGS

Turning to TNP-ATP, the values for the Kd in test [1] and in test [2] were 27 µM and 13 µM, respectively.

Broadly, the Kd is the constant that tells how readily two partners part at equilibrium.
